Measurements as given in patent US20250051290A1, “NOVEL COMPOUND FOR IMPROVING SLEEP OR USE THEREOF” (Ajou University Industry-Academic Cooperation Foundation, priority 2021, published 2025).

Molecular target: T1, adenosine A1 receptor (Homo sapiens, UniProt P30542)
T1 construct: expressed in transfected cells; cells use mitochondrial aequorin
T1 sequence (P30542 1-326): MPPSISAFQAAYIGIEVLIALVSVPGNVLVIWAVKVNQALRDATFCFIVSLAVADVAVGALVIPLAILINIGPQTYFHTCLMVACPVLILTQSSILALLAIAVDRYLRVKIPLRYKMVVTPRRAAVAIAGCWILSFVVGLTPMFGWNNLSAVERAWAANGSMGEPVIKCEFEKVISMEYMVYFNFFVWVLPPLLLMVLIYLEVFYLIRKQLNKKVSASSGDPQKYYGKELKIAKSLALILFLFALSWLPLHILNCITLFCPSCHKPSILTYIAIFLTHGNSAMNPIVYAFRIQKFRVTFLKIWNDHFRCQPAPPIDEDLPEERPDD
Assay: Adenosine A1 receptor agonistic activity, aequorin calcium luminescence in A1-overexpressing cell line
Type: cell-based
Conditions: for activation at 10 µM: compound concentration 10 μM; for activation at 10 µM / activation at 50 µM: read-out: agonistic effect on A1 receptor, response relative to adenosine as 100%; for activation at 50 µM: compound concentration 50 μM
From the text: The intracellular endoplasmic reticulum has the function of storing calcium ions and releasing them when necessary. It is responsible for managing and maintaining the overall physiological activities of the human body, such as contracting muscles and promoting hormone secretion by releasing calcium ions. This mechanism has been applied as a universal and accurate method to study the activity of G protein-coupled receptors (GPCRs), and the method of measuring calcium ions, which are the final measurement target, has been developed into various methods including fluorescent substances. The present inventors tried to use chemical luminescence through aequorin to evaluate the agonistic efficacy of the compounds subject to development. To this end, a cell line overexpressing an adenosine receptor (adenosine receptor subtype 1, A1), which targets calcium ions released from the intracellular endoplasmic reticulum, was used, and the concentration of calcium ions released instantaneously was measured using a cell function screening system based on the luminescence phenomenon through mitochondrial aequorin.
Cells into which an A1 receptor gene was inserted through transformation were washed with 10 ml of PBS after 48 hours of culture, and then the cells were isolated and centrifuged at 1,000×g for 5 minutes. The precipitated cells were treated with a basic buffer solution (Dulbecco's Modified Eagle's Medium (DMEM)/HAM's F12 without phenol red, with L-glutamate, 15 mM hydroxyethyl piperazine ethane sulfonic acid (HEPES), pH 7.0, 0.1% bovine serum albumin (BSA)), coelenterazine h was added to a concentration of 2×10^6 cells/ml, and then light was blocked. The cells were allowed to react with coelenterazine h using a rotator at room temperature. After four hours of reaction, the reaction mixture was diluted 10 times with a basic buffer solution to adjust the concentration to 2×10^5 cells/ml and allowed to stand for 60 minutes under the same conditions as before.
To confirm the agonistic activity of the novel compounds of the present invention, the previously prepared cells were plated in a 96-well black plate (Corning 3915) containing adenosine ([…]-4.57 nM) at 50 µl/well (5,000 cells/well), and then the resulting signal value was measured. To confirm the calcium signal changing activity (agonistic activity) of the compounds subject to development, the prepared cells were plated in a 96-well plate containing 50 μl/well of the compound sample at 50 μl/well and allowed to react for 30 minutes. Thereafter, 50 μl/well of adenosine (3 μM) was injected to confirm the reaction. The light emitted due to cell activity was measured and recorded using a Mithras 960 MultiLabel Reader. The measured value (area under the curve (AUC) integrated signal) was expressed in relative light units (RLU). To ensure the accuracy of the experimental data, the experiment was performed at at least two concentrations ([…] and 50 μM) with three samples of the same compound, and EC50 values calculated when necessary were compared and analyzed with the values obtained through at least three experiments.
As a result, the results shown in Table 1 below and FIG. 5 were obtained. Each value was obtained by assuming the response of […] adenosine as 100% and converting the ratio into percentage. The greater the value, the greater the agonistic effect.

| activation at 10 µM | activation at 50 µM | EC50 (dose-response, FIG. 5) | SMILES |
| --- | --- | --- | --- |
| 23.7% | 246% | – | CCNc1nc(NCc2ccco2)c2ccccc2n1 [AR-001, N^2-ethyl-N^4-(furan-2-ylmethyl)quinazoline-2,4-diamine] |
| -1.1% | 12% | – | c1coc(CNc2nc(NCc3ccc4c(c3)OCO4)nc3ccccc23)c1 [AR-007, N^2-(benzo[d][1,3]dioxol-5-ylmethyl)-N^4-(furan-2-ylmethyl)quinazoline-2,4-diamine] |
| 2.1% | 240% | – | CN(C)c1nc(NCc2ccc3c(c2)OCO3)nc2ccccc12 [AR-010, N^2-(benzo[d][1,3]dioxol-5-ylmethyl)-N^4,N^4-dimethylquinazoline-2,4-diamine] |
| -0.4% | 42.8% | – | CCNc1nc(NC(C)c2ccccc2)c2ccccc2n1 (stereo not drawn) [AR-011, N^2-ethyl-N^4-(1-phenylethyl)quinazoline-2,4-diamine] |
| -0.9% | 25.1% | – | CCNc1nc(N2CCCC2)c2ccccc2n1 [AR-014, N-ethyl-4-(pyrrolidin-1-yl)quinazolin-2-amine] |
| 3.7% | 101% | – | c1ccc2c(N3CCCC3)nc(NC3CC3)nc2c1 [AR-016, N-cyclopropyl-4-(pyrrolidin-1-yl)quinazolin-2-amine] |
| -0.3% | 0% | – | COc1cc2nc(NCc3ccco3)nc(N(C)C)c2cc1OC [AR-019, N^2-(furan-2-ylmethyl)-6,7-dimethoxy-N^4,N^4-dimethylquinazoline-2,4-diamine] |
| 1.8% | 0.1% | – | c1ccc2c(N3CCCC3)nc(N3CCCC3)nc2c1 [AR-021, 2,4-di(pyrrolidin-1-yl)quinazoline] |
| -0.5% | 0% | – | CN(C)c1nc(N2CCCC2)c2ccccc2n1 [AR-022, N,N-dimethyl-4-(pyrrolidin-1-yl)quinazolin-2-amine] |
| 1.7% | 47.8% | – | CC(Nc1nc(N2CCCC2)c2ccccc2n1)c1ccccc1 (stereo not drawn) [AR-023, N-(1-phenylethyl)-4-(pyrrolidin-1-yl)quinazolin-2-amine] |
| -0.7% | 0.1% | – | O=C(NCCNc1nc(N2CCCC2)c2ccccc2n1)c1ccc(O)c(O)c1 [AR-024, 3,4-Dihydroxy-N-(2-((4-(pyrrolidin-1-yl)quinazolin-2-yl)amino)ethyl)benzamide] |
| -1.6% | 0.4% | – | Oc1cc2nc(NC3CC3)nc(N3CCCC3)c2cc1O [AR-025, 2-(Cyclopropylamino)-4-(pyrrolidin-1-yl)quinazoline-6,7-diol] |
| 0.2% | 1.1% | – | CCNc1nc(N2CCCC2)c2cc(O)c(O)cc2n1 [AR-027, 2-(Ethylamino)-4-(pyrrolidin-1-yl)quinazoline-6,7-diol] |

Continued, compound first:

| SMILES | activation at 10 µM | activation at 50 µM | EC50 (dose-response, FIG. 5) |
| --- | --- | --- | --- |
| CN(C)c1nc(NCc2ccco2)nc2ccccc12 [AR-002, N^2-(furan-2-ylmethyl)-N^4,N^4-dimethylquinazoline-2,4-diamine] | -1.5% | 1.3% | – |
| CC(Nc1nc(NC2CC2)nc2ccccc12)c1ccccc1 (stereo not drawn) [AR-003, N^2-cyclopropyl-N^4-(1-phenylethyl)quinazoline-2,4-diamine] | -1.1% | 3.9% | – |
| c1ccc2c(N3CCCC3)nc(NCc3ccc4c(c3)OCO4)nc2c1 [AR-004, N-(benzo[d][1,3]dioxol-5-ylmethyl)-4-(pyrrolidin-1-yl)quinazolin-2-amine] | -0.7% | -0.8% | – |
| c1coc(CNc2nc(NCc3ccco3)c3ccccc3n2)c1 [AR-005, N^2,N^4-bis(furan-2-ylmethyl)quinazoline-2,4-diamine] | 0.2% | 251% | – |
| c1coc(CNc2nc(NC3CC3)nc3ccccc23)c1 [AR-006, N^2-cyclopropyl-N^4-(furan-2-ylmethyl)quinazoline-2,4-diamine] | 170% | 289% | 6.95 µM |
| CCNc1nc(N(C)C)c2ccccc2n1 [AR-008, N^2-ethyl-N^4,N^4-dimethylquinazoline-2,4-diamine] | 0.4% | 2.6% | – |
| CN(C)c1nc(NC2CC2)nc2ccccc12 [AR-009, N^2-cyclopropyl-N^4,N^4-dimethylquinazoline-2,4-diamine] | -1.2% | 14.6% | – |
| CC(Nc1nc(NCc2ccco2)nc2ccccc12)c1ccccc1 (stereo not drawn) [AR-012, N^2-(furan-2-ylmethyl)-N^4-(1-phenylethyl)quinazoline-2,4-diamine] | -0.6% | 6.4% | – |
| CC(Nc1nc(NCc2ccc3c(c2)OCO3)nc2ccccc12)c1ccccc1 (stereo not drawn) [AR-013, N^2-(benzo[d][1,3]dioxol-5-ylmethyl)-N^4-(1-phenylethyl)quinazoline-2,4-diamine] | 0.8% | -0.4% | – |
| c1coc(CNc2nc(N3CCCC3)c3ccccc3n2)c1 [AR-015, N-(furan-2-ylmethyl)-4-(pyrrolidin-1-yl)quinazolin-2-amine] | 28.6% | 219% | – |
| COc1cc2nc(NC3CC3)nc(N3CCCC3)c2cc1OC [AR-017, N-cyclopropyl-6,7-dimethoxy-4-(pyrrolidin-1-yl)quinazolin-2-amine] | 0.6% | 0.9% | – |
| CCNc1nc(NCc2ccco2)c2cc(OC)c(OC)cc2n1 [AR-018, N^2-ethyl-N^4-(furan-2-ylmethyl)-6,7-dimethoxyquinazoline-2,4-diamine] | 1% | 0% | – |
| CCNc1nc(N2CCCC2)c2cc(OC)c(OC)cc2n1 [AR-020, N-ethyl-6,7-dimethoxy-4-(pyrrolidin-1-yl)quinazolin-2-amine] | 0.3% | -0.7% | – |
| CN(C)c1nc(NCc2ccco2)nc2cc(O)c(O)cc12 [AR-026, 4-(Dimethylamino)-2-((furan-2-ylmethyl)amino)quinazoline-6,7-diol] | -0.6% | 0% | – |
| CCNc1nc(NCc2ccco2)c2cc(O)c(O)cc2n1 [AR-028, 2-(Ethylamino)-4-((furan-2-ylmethyl)amino)quinazoline-6,7-diol] | -0.3% | -1.1% | – |
